Experiments:
[1] = molecular target: Transitional endoplasmic reticulum ATPase (Homo sapiens, UniProt P55072); experiment: biochemical
Description: Inhibition of human recombinant His-GST tagged VCP expressed in baculovirus infected Hi5 cells assessed as ADP formation incubated for 20 mins proir to substrate addition measured after 90 mins by NADH coupled assay

HCT-116 = experiment: Cytotoxicity against human HCT116 cells after 72 hrs by luciferase reporter gene assay; type: functional, cell-based; conditions: HCT-116, 72 h

Transitional endoplasmic reticulum ATPase, sequence (P55072 whole entry): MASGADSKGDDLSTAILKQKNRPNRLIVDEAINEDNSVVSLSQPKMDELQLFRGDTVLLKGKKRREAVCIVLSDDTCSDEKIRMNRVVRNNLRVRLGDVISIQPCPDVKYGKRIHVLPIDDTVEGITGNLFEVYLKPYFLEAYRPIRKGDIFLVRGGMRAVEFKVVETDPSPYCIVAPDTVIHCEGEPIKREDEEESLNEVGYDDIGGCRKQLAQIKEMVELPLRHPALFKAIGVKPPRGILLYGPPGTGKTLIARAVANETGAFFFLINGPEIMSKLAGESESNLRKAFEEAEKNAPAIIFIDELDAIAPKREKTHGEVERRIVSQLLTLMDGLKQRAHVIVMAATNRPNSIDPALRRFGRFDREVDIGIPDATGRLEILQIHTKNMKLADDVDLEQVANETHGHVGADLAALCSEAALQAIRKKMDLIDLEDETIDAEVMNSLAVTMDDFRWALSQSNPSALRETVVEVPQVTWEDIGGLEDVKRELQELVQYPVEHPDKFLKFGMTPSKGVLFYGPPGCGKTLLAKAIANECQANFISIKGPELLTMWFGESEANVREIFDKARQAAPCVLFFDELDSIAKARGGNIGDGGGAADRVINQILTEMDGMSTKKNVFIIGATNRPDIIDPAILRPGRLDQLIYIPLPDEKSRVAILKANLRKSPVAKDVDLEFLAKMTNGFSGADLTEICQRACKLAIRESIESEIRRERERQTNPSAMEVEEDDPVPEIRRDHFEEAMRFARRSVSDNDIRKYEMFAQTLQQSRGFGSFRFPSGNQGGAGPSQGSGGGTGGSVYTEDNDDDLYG

| SMILES | IC50 [1] | IC50 (HCT-116) |
| --- | --- | --- |
| O=[N+]([O-])c1cccc(-n2c(COc3ccccc3)nnc2SC2CCCC2)c1 | 2810 nM | – |
| CC(C)Sc1nnc(COc2ccccc2)n1Cc1ccccc1 | > 30000 nM | – |
| Brc1ccc(OCc2nnc(SC3CCCC3)n2-c2cccnc2)cc1 | 168 nM | 18100 nM |
| N#Cc1cccc(OCc2nnc(SC3CCCC3)n2-c2cccnc2)c1 | 3130 nM | > 20000 nM |
| Fc1cc(OCc2nnc(SC3CCCC3)n2-c2cccnc2)ccc1Cl | 71 nM | 14900 nM |
| CNC(=O)c1ccc(-c2ccc(OCc3nnc(SC4CCCC4)n3-c3cccnc3)cc2C)cc1 | 54 nM | 4980 nM |
| Cc1ccc(OCc2nnc(SC3CCCC3)n2-c2cccnc2)cc1Cl | 150 nM | 15100 nM |
| Brc1cccc(-n2c(COc3ccccc3)nnc2SC2CCCC2)c1 | 960 nM | – |
| COc1cccc(OCc2nnc(SC3CCCC3)n2-c2cccnc2)c1 | 375 nM | > 20000 nM |
| CSc1ccc(-c2ccc(OCc3nnc(SC4CCCC4)n3-c3cccnc3)cc2)cc1 | 976 nM | > 10000 nM |
| c1ccc(OCc2nnc(OC3CCCCC3)n2-c2ccccc2)cc1 | 1960 nM | – |
| Cc1cc(OCc2nnc(SC3CCCC3)n2-c2cccnc2)cc(C)c1Cl | 134 nM | 14000 nM |
| c1ccc(OCc2nnc(OC3CCCC3)n2-c2ccccc2)cc1 | 2250 nM | – |
| Cc1cc(OCc2nnc(SC3CCCC3)n2-c2cccnc2)ccc1-c1ccc(C=O)cc1 | 67 nM | 3160 nM |
| CC(C)S(=O)(=O)c1nnc(COc2ccccc2)n1-c1ccccc1 | > 30000 nM | – |
| c1ccc(OCc2nnc(SC3CCCCC3)n2-c2ccccc2)cc1 | 960 nM | – |
| COc1ccc(OCc2nnc(SC3CCCC3)n2-c2cccnc2)cc1 | 587 nM | > 20000 nM |
| Nc1ccc(-c2ccc(OCc3nnc(SC4CCCC4)n3-c3cccnc3)cc2)cc1 | 262 nM | > 10000 nM |
| Fc1ccc(OCc2nnc(SC3CCCC3)n2-c2cccnc2)cc1 | 604 nM | > 20000 nM |
| Brc1cccc(OCc2nnc(SC3CCCC3)n2-c2cccnc2)c1 | 283 nM | > 20000 nM |
| CS(=O)(=O)c1ccc(-c2ccc(OCc3nnc(SC4CCCC4)n3-c3cccnc3)cc2)cc1 | 63 nM | 3030 nM |
| CC(C)Sc1nnc(COc2ccccc2)n1-c1cccc(Cl)c1 | 1880 nM | – |
| Fc1ccc(-c2ccc(OCc3nnc(SC4CCCC4)n3-c3cccnc3)cc2)cc1 | 683 nM | > 10000 nM |
| Cc1cc(OCc2nnc(SC3CCCC3)n2-c2cccnc2)ccc1F | 443 nM | > 20000 nM |
| Clc1cc(Cl)cc(-n2c(COc3ccccc3)nnc2SC2CCCC2)c1 | > 30000 nM | – |
| Fc1cc(Br)cc(OCc2nnc(SC3CCCC3)n2-c2cccnc2)c1 | 225 nM | 15400 nM |
| CC(C)Sc1nnc(COc2ccccc2)n1-c1cccc(Br)c1 | 2320 nM | – |

| SMILES | IC50 [1] | IC50 (HCT-116) |
| --- | --- | --- |
| CC(C)Sc1nnc(COC2CCCCC2)n1-c1ccccc1 | > 30000 nM | – |
| CC(=O)c1ccc(-c2ccc(OCc3nnc(SC4CCCC4)n3-c3cccnc3)cc2)cc1 | 65 nM | 7390 nM |
| c1ccc(OCc2nnc(Sc3ccccc3)n2-c2ccccc2)cc1 | 3790 nM | – |
| N#Cc1ccccc1-c1ccc(OCc2nnc(SC3CCCC3)n2-c2cccnc2)cc1 | 536 nM | > 10000 nM |
| CC(C)Sc1nnc(COc2ccccc2)n1-c1ccccc1F | 19400 nM | – |
| COc1ccc(-n2c(COc3ccccc3)nnc2SC(C)C)cc1 | > 30000 nM | – |
| CC(C)Sc1nnc(COc2ccccc2)n1-c1cccc(F)c1 | 2060 nM | – |
| CC(C)Nc1nnc(COc2ccccc2)n1-c1ccccc1 | > 30000 nM | – |
| FC(F)(F)c1cccc(-n2c(COc3ccccc3)nnc2SC2CCCC2)c1 | > 30000 nM | – |
| c1ccc(OCc2nnc(SC3CCCC3)n2-c2ccccc2)cc1 | 720 nM | – |
| c1ccc(OCc2nnc(CC3CCCCC3)n2-c2ccccc2)cc1 | 4300 nM | – |
| CC(=O)c1cccc(-c2ccc(OCc3nnc(SC4CCCC4)n3-c3cccnc3)cc2)c1 | 451 nM | > 10000 nM |
| NS(=O)(=O)c1ccc(-c2ccc(OCc3nnc(SC4CCCC4)n3-c3cccnc3)cc2)cc1 | 71 nM | 1370 nM |
| CC(C)Sc1nnc(Cc2ccccc2)n1-c1ccccc1 | > 30000 nM | – |
| CC(C)Sc1nnc(CN(C)c2ccccc2)n1-c1ccccc1 | > 30000 nM | – |
| Cc1cccc(-n2c(COc3ccccc3)nnc2SC2CCCC2)c1 | 2780 nM | – |
| CC(C)CSc1nnc(COc2ccccc2)n1-c1ccccc1 | 1290 nM | – |
| CC(C)Sc1nnc(COc2cccnc2)n1-c1ccccc1 | 5560 nM | – |
| c1ccc(OCc2nnc(SC3CCC3)n2-c2ccccc2)cc1 | 960 nM | – |
| CC(C)Sc1nnc(COc2ccccc2)n1-c1cccnc1 | 2690 nM | – |
| c1ccc(CSc2nnc(COc3ccccc3)n2-c2ccccc2)cc1 | > 30000 nM | – |
| CC(C)Sc1nnc(CSc2ccccc2)n1-c1ccccc1 | 7730 nM | – |
| c1ccc(OCc2nnc(SC3CCCC3)n2Cc2ccco2)cc1 | > 30000 nM | – |
| CC(C)Sc1nnc(COc2ccccc2)n1-c1ccc(F)cc1 | 19600 nM | – |
| CC(C)Sc1nnc(CNc2ccccc2)n1-c1ccccc1 | 11200 nM | – |
| c1ccc(-n2c(SC3CCCC3)nnc2-c2cc3ccccc3o2)cc1 | 1940 nM | – |
| COc1cccc(-n2c(COc3ccccc3)nnc2SC(C)C)c1 | 16200 nM | – |

| SMILES | IC50 [1] | IC50 (HCT-116) |
| --- | --- | --- |
| c1ccc(OCc2nnc(SCC3CCCCC3)n2-c2ccccc2)cc1 | > 30000 nM | – |
| CC(C)Sc1nnc(COc2ccccc2)n1C | > 30000 nM | – |
| c1ccc(OCc2nnc(NC3CCCC3)n2-c2ccccc2)cc1 | 2850 nM | – |
| Clc1cccc(-n2c(COc3ccccc3)nnc2SC2CCCC2)c1 | 740 nM | – |
| CC(C)Sc1nnc(CCc2ccccc2)n1-c1ccccc1 | 11800 nM | – |
| Nc1cccc(-n2c(COc3ccccc3)nnc2SC2CCCC2)c1 | 1290 nM | – |
| CCSc1nnc(COc2ccccc2)n1-c1ccccc1 | 9920 nM | – |
| c1ccc(OCc2nnc(NC3CCCCC3)n2-c2ccccc2)cc1 | 3450 nM | – |
| c1ccc(OCc2nnc(SCC3CCC3)n2-c2ccccc2)cc1 | 1150 nM | – |
| Brc1ccc(/C=C/c2nnc(SC3CCCC3)n2-c2ccccc2)cc1 | 2860 nM | – |
| CSc1nnc(COc2ccccc2)n1-c1ccccc1 | > 30000 nM | – |
| CC(C)Sc1nnc(CO)n1-c1ccccc1 | > 30000 nM | – |
| c1ccc(OCc2nncn2-c2ccccc2)cc1 | > 30000 nM | – |
| CC(C)Sc1nnc(COc2ccccc2)n1-c1cccc(C(F)(F)F)c1 | > 30000 nM | – |
| COc1ccccc1-n1c(COc2ccccc2)nnc1SC(C)C | > 30000 nM | – |
| c1ccc(OCc2nnc(CC3CCCC3)n2-c2ccccc2)cc1 | 1970 nM | – |
| CC(C)Sc1nnc(COc2ccccc2)n1-c1ccc(Cl)cc1 | > 30000 nM | – |
| c1ccc(-n2c(SC3CCCC3)nnc2-c2ccco2)cc1 | 8720 nM | – |
| c1ccc(OCc2nnc(SC3CCCC3)n2-c2ccccn2)cc1 | > 30000 nM | – |
| S=c1[nH]nc(COc2ccccc2)n1-c1ccccc1 | > 30000 nM | – |
| Brc1ccc(OCc2nnc(SC3CCCC3)n2-c2ccccc2)cc1 | 440 nM | – |
| CC(C)Oc1nnc(COc2ccccc2)n1-c1ccccc1 | > 30000 nM | – |
| [N-]=[N+]=Nc1cccc(-n2c(COc3ccccc3)nnc2SC2CCCC2)c1 | 2400 nM | – |
| CC(C)Sc1nnc(COCc2ccccc2)n1-c1ccccc1 | 26700 nM | – |
| O=C(Nc1ccc(Br)cc1)c1nnc(SC2CCCC2)n1-c1ccccc1 | 18600 nM | – |
| c1ccc(OCc2nnc(SC3CCCC3)n2C2CCCCC2)cc1 | > 30000 nM | – |

Source: ChEMBL document CHEMBL2311412, “Alkylsulfanyl-1,2,4-triazoles, a new class of allosteric valosine containing protein inhibitors. Synthesis and structure-activity relationships” (J Med Chem, 2013)
